Experimental data as given in paper PMC4561586 (Biochimica et biophysica acta, 2015).

Target: T1, Nostoc linoleate 10S-dioxygenase (10S-DOX) (Nostoc punctiforme, UniProt B2J5P4)
T1 sequence (B2J5P4 1-542): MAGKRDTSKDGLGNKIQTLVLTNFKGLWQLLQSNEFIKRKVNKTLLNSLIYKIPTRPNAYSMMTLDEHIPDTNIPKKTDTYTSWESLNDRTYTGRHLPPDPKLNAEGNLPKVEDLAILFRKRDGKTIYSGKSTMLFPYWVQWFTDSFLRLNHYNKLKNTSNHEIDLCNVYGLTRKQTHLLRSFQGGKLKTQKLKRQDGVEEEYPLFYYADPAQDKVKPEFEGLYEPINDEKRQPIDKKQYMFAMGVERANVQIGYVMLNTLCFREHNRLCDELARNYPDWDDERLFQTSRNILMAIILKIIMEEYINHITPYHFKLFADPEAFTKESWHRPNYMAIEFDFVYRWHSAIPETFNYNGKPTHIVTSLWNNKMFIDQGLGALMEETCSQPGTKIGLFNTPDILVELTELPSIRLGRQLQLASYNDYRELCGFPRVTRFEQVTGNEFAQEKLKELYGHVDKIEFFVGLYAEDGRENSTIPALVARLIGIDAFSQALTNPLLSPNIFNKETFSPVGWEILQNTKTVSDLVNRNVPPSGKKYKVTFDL
Assay: oxygen uptake kinetics
Format: biochemical

- Km: 60.3 µM
Compound: CCCCC/C=C\C/C=C\CCCCCCCC(=O)O [LA, linoleic acid]
